Assay [1] concerns PfYRS knockdown line. The assay can be described thus: Growth inhibition of aptamer-regulatable PfYRS knockdown line (luciferase, 72 h). Conditions: for IC50: Plasmodium falciparum. It counts as cell-based, Plasmodium falciparum. An excerpt: 674 Generation and analysis of PfYRS knock-down transfectants
675 A conditional regulatable line for the cytosolic PfYRS (PF3D7_0807900) was generated by integrating the
676 gene regulatable system, TetR-DOZI-RNA aptamer module at the 3'-end of the target gene, in P. falciparum
(§1) 677 parasites using CRISPR-Cas9 and homology-driven repair (55, 56). A line harbourbing an aptamer-
678 regulatable fluorescent protein (eYFP) integrated in the cg6 locus is used as the control (55). Transfection
679 into parasites was carried out by preloading RBCs with the donor vector as described previously (57).
680 Briefly, 50 μg of purified plasmid DNA was mixed with human RBCs and subjected to 8 square wave
681 electroporation pulses of 365 V for 1 ms each, separated by 0.1 s in a 0.2 cm cuvette. The plasmid DNA
682 preloaded cells were inoculated with NF54 expressing Cas9 and T7 RNA polymerase. […]
(§2) 696 Stock solutions of ML901, DHA or borrelidin (Cayman Chemicals) were dispensed into 96-well U-bottom
(§3) 697 BD Falcon™ plates and serially diluted in complete medium to yield final concentrations ranging from 20-
(§4) 698 0.08 nM. Synchronous ring-stage YRScyt conditional knockdown line and the aptamer-regulatable control
(§5) 699 line in varying aTc concentrations (high = 50 or 500 nM, low = 1 nM, and no aTc) were distributed into
(§6) 700 the drug plate. Lowest drug treatment and a lethal dose of chloroquine (200 nM) served as reference
(§7) 701 controls. Growth inhibition was analysed after 72 h using the Renilla-Glo(R) Luciferase Assay System (ref
(§8) 702 no E2750 Promega) and the GloMax® Discover Multimode Microplate Reader (Promega), and IC50 values
(§9) 703 were obtained from corrected dose-response curves using GraphPad Prism (version 8; GraphPad Software). […]
(§10) 706 CRISPR/Cas9 was used to generate parasites encoding the S234C mutation in exon 2 of PfYRS, as shown
(§11) 707 in Suppl Figure 6. Two guide RNAs (gRNA1: […] and gRNA2:
(§12) 708 […]) were selected using Benchling (benchling.com), and cloned into the
709 pDC2-coCas9-gRNA plasmid essentially as described previously (58). A donor template of 645 bp,
710 encompassing the majority of the 708 bp exon 2, was synthesized (ThermoFisher) and cloned into the
711 AatII/EcoRI sites of both the pDC2-coCas9-gRNA1 and pDC2-coCas9-gRNA2 plasmids. In addition to
712 the TCC>TGC (S234C) mutation, additional silent shield mutations were introduced to prevent gRNA-
713 Cas9 complex binding, as shown in Suppl Figure 6. Ring-stage P. falciparum parasites (Dd2 strain) at 10%
714 parasitemia (150 µL of packed cells) were transfected with 50 µg of plasmid DNA using a BioRad Gene
715 Pulser II (310 V, 950 µF), and selected with 5 nM WR99210 (Jacobus Pharmaceuticals) for 8 days, after
716 which culture was continued without drug pressure until transfectants were obtained. Clones of the
717 PfYRSS234C mutant parasites were isolated by limiting dilution and verified by Sanger sequencing.
719 Protein translation assay
720 P. falciparum Cam 3.II_Rev (25) schizont- (43-48 h p.i.) infected RBCs were pre-incubated with inhibitor
Using a modification of a published procedure (14), the
722 cells were labelled with O-propargyl-puromycin (OPP; 4 µM) for 1 h, washed 3x (PBS +3% serum) and
723 then fixed for 10 minutes (4% formaldehyde/0.02% glutaraldehyde in PBS). The click reaction was
724 performed for 1 h in the presence of CuSO4 (0.1 mM), THPTA (0.5 mM) and sodium ascorbate (5 mM) to
725 bring about azide-alkyne cycloaddition to Alexa Fluor 488 azide (0.1 µM). Flow cytometry was performed
726 using the FITC and Cy™5.5 channels to detect the Alexa Fluor 488 and PI, respectively.
729 Cam 3.II_Rev (25) trophozoite-infected RBCs (25-30 h p.i.) were incubated with inhibitor for 3 h at 10%
730 hematocrit and 5% parasitemia. The RBC pellet was washed 3 x in PBS + cOmplete. Cells were centrifuged
731 at 380 x g for 5 min and the pelleted cells lysed by resuspension in PBS + 0.05% saponin for 5 min on ice.

For assay [2], the system named is aptamer-regulatable control line. The assay can be described thus: Growth inhibition of aptamer-regulatable control line (luciferase, 72 h). It counts as cell-based, Plasmodium falciparum. As for the experimental part: as §1
678 regulatable fluorescent protein (eYFP) integrated in the cg6 locus is used as the control (55). […]
as §2, §3, §4, §5, §6, §7, §8, §9, §10, §11, §12
709 pDC2-coCas9-gRNA plasmid essentially as described previously (58). A donor template of 645 bp, […]

Molecules are shown by their SMILES. Read-outs that look alike come from different tables or passages of the source.

A word on the IC50: it is the midpoint of a concentration-inhibition curve. Consider `Nc1ncnc2c1c(OC(F)F)nn2[C@@H]1O[C@H](COS(N)(=O)=O)[C@@H](O)[C@H]1O` [ML901], for which the IC50 in assay [1] (as stated in main text, aTc condition not given, read-out: IC50 against the knockdown parasites) was 0.4 nM; in assay [1] (high aTc (50 nM), read-out: IC50 against PfYRS knockdown line), 3.9 ± 0.9 nM; in assay [1] (low aTc (1 nm), read-out: IC50 against PfYRS knockdown line), 0.5 ± 0.1 nM; in assay [1] (no aTc, read-out: IC50 against PfYRS knockdown line), 0.3 ± 0.1 nM; in assay [2] (Plasmodium falciparum, read-out: IC50 against control line) it was 2.4 ± 0.2 nM. Also, the “Fold change in IC50 (high aTc/ no aTc), PfYRS knockdown line” value in assay [1] (high aTc 50 nM) is given as 13. For the same molecule, the “Fold change in IC50 (high aTc/ no aTc), control line” value in assay [2] is reported as “no change”.

The record behind these values is publication PMC7613620, “Reaction hijacking of tyrosine tRNA synthetase as a whole-of-life-cycle antimalarial strategy” (Science (New York, N.Y.), 2022).
